Source: patent publication US10822376B2, “Biologically active peptides” (Baxalta Incorporated, priority 2008, dated 2020)
Converted amounts (≈) assume the structure as drawn. *1 amine or outer side, *2 acyl side, *3 side chain or, on linkers, in order; H or OH if unused. Where a SMILES comes first, the peptide text is derived from it. Bridges are numbered along the chain shown (N, C = ends). [ ]: non-standard residue; d: D form. The star is where a group is joined. Suc = O=C(CCC(=O)[*:2])[*:1]; X3 = CC(=O)NCCCOCCOCCOCCCN*

Tests used:
[1] = tested on: Factor VII/VIIa deficient human plasma; assay: DDPTGA (reagent B) in FVII depleted plasma; details: compounds at 50 μM and 80, 90 or 100 μM
Procedure: (§5) The Defined Dual-Pathway Thrombin Generation Assay is performed as described below, using a commercial test kit (Technothrombin TGA, Technoclone GmbH, Vienna, Austria). […] USA) are incubated four minutes at 37° C. Preferably, Reagent C high is used. Thrombin generation is started by the addition of 40 μl of one of several types of human plasma (37° C.). […] By deviating the original fluorescence data the amount of generated thrombin is calculated from a standard curve constructed using a concentration range of thrombin.
(§6) The in vitro thrombin generation assay based on the cleavage of Z-GGR-AMC to release the fluorophore AMC, described in the specific description, i.e. the Defined Dual-Pathway Thrombin Generation Assay was used to characterise the effect of the compounds in several depleted human plasmas. […] 10 μl peptide dilution, 40 μl TGA substrate and 40 μl plasma were used as described in the specific description.
(§7) The plasmas used in the experiments were fresh frozen and were deficient in Factor V, Factor VII/VIIa, Factor VIII, Factor X or Factor XI (George King Bio-Medical, Inc.). Residual coagulation factor levels of deficient plasmas were specified as less than 1%.
(§8) For each depleted plasma used in the experiments, compounds were tested at two concentrations, namely 50 μM and 80, 90 or 100 μM. A negative control was used, in which no test compound was included.

[2] = tested on: Factor X deficient human plasma; assay: DDPTGA (reagent B) in FX depleted plasma; details: compounds at 50 μM and 80, 90 or 100 μM
Procedure: as §5, §6, §7, §8

[3] = tested on: Factor XI deficient human plasma; assay: DDPTGA (reagent B) in FXI depleted plasma; details: compounds at 50 μM and 80, 90 or 100 μM
Procedure: as §5, §6, §7, §8

[4] = tested on: human FVIII inhibited plasma; assay: Defined Intrinsic Thrombin Generation Assay (DITGA, triggered by FXIa and phospholipids); format: biochemical; details: for Activity in the Defined Intrinsic Thrombin Generation Assay: summary
Excerpt: (§1) The intrinsic pathway of thrombin generation may be assayed in a thrombin generation assay by including FXIa and phospholipids. In such an assay, which is similar to an activated partial thromboplastin time (aPTT) test, thrombin generation is solely directed through the intrinsic pathway, and is FVIII dependent. A suitable assay is the Defined Intrinsic Thrombin Generation Assay described below. Alternatively, by employing low concentrations of TF and phospholipids instead of FXIa and phospholipids, thrombin is generated by both the extrinsic (tissue factor) and the intrinsic pathways. This form of the thrombin generation assay is the more physiologic one, as both thrombin generation pathways are involved; it is partially FVIII dependent. A suitable assay is the Defined Dual-Pathway Thrombin Generation Assay.
The Defined Intrinsic Thrombin Generation Assay is performed as follows. FVIII activity of human plasma is inhibited by incubating (2 hours, 37° C.) 40 μl of human normal plasma with 10 μl heat inactivated anti-human FVIII plasma raised in goat (600 BU/ml, 6 hours incubated at 56° C.). […] Instead of FVIII-inhibited plasma, FVIII inhibitor patient plasma or several depleted plasmas can be used. The micro-plate is immediately put into a GENios Plus (Tecan) or Safire 2 (Tecan) fluorescence reader and the fluorescence signal (ex 340 nm/em 440 nm) is followed kinetically by reading the plate every 21 seconds.
For calculation of activity equivalent units experiments are performed with dilutions of Factor Eight Inhibitor Bypassing Agent (FEIBA, Baxter AG), Immunate (human FVIII, purified plasma derived) reference standard (Baxter AG) or Recombinate standard (human FVIII, purified recombinant, Baxter AG). A linear fit of the logarithm of FEIBA (FVIII) concentration plotted against thrombin generation time at peak thrombin results in a standard curve. With this curve FEIBA (FVIII) equivalent activity is calculated for a defined peptide concentration. […] Thus, where a concentration of 100 μM is given, the actual concentration in the final assay volume in 40 μM.
Compounds were screened using the “Defined intrinsic thrombin generation assay” in which thrombin generation was quantified in vitro in FVIII-inhibited human plasma in the presence of Factor XIa and phospholipid vesicles. Further compounds were screened in the above assay, and in the “Defined dual-pathway thrombin generation assay” using tissue factor and phospholipids instead of Factor XIa and phospholipids, as described in the specific description.
Various concentrations of each peptide were tested in the defined intrinsic thrombin generation assay using human FVIII inhibited plasma.

[5] = tested on: FVIII-inhibited human normal plasma; assay: Defined Fibrin Deposition Assay (clotting time); format: biochemical
Procedure: Another suitable assay to determine procoagulant activity, and particularly FVIII equivalent activity or FVIII inhibitor bypassing activity, is the Defined Fibrin Deposition Assay as described below. […] This assay is particularly useful for determining coagulation FVIII activity because it is conducted in the presence of FVIII-depleted or inhibited plasma.
The Defined Fibrin Deposition Assay is performed as follows. FVIII activity of human citrated plasma (Baxter AG) is first inhibited by incubating (2 hours, 37° C.) 100 μl of human normal plasma with 25 μl heat inactivated anti-human FVIII plasma (300 BU/ml, 6 hours incubated at 56° C.) raised in goat. For each sample to be tested, 125 μl of this FVIII-inhibited human normal plasma is transferred to a pre-warmed cuvette and a 75 μl dilution of a test compound or FEIBA reference standard (Baxter AG) is added. The dilutions of test compound or FEIBA reference standard contain 50 mM imidazole, 100 mM NaCl and 10 mg/ml human serum albumin (Sigma) pH 7.4. As a trigger and for providing procoagulant surfaces 100 μl of a mix of human factor XIa (3.13 nM, Enzyme Research Laboratories) and phospholipid (PL) vesicles (Phosphatidylcholine/Phosphatidylserine 60%/40%, 30 μM; Avanti Polar Lipids) in 50 mM Imidazole, 100 mM NaCl, 10 mg/ml human serum albumin (Sigma) pH 7.4 is included. After incubating for three minutes at 37° C. the coagulation reaction is started by adding 100 μl of 25 mM CaCl2. Clot formation is monitored by a coagulometer (KC10A, Amelung, Germany). In brief, each cuvette rotates slowly above the magnetic detection device and contains a small magnetic metallic ball. Whilst the plasma components remain in solution, the ball sits at the bottom of the cuvette. Over time, a clot begins to form, such that the ball starts to rotate with the developing clot in the rotating cuvette. The “clotting time” is recorded and is defined as the time from addition of the CaCl2) to the time that the developing clot begins to rotate the metallic ball. A standard curve for FEIBA reference standard dilutions is calculated by linear regression of logarithmic FEIBA concentrations (x-axis) against the clotting time (y-axis). Based on the clotting time of each compound concentration FEIBA equivalent activities are calculated according to this standard curve.
Thus, where a concentration of 100 μM is given, the actual concentration in the final assay volume in 25 μM.
Various peptides were tested for the ability to stimulate fibrin deposition in the Defined Fibrin Deposition Assay as described in the specific description.

FVIII deficient plasma = assay: Defined Dual-Pathway Thrombin Generation Assay (DDPTGA, reagent C high), FVIII deficient plasma; format: biochemical, human; details: FVIII deficient plasma
Excerpt: as §1
(§2) Preferably, Reagent C high is used.
(§3) Tissue factor dependency of peak thrombin generation and thrombin peak time was characterised in a composition containing a fixed concentration of phospholipid (namely 3.2 μM). Phospholipid dependency was characterised in a composition containing a fixed concentration of tissue factor (namely 7.2 μM). Peak time (time to peak thrombin generation) was dependent on the concentration of phospholipid or tissue factor. The final version of this assay is as described in the specific description, in which 10 μl reagent C high containing (32 μM phospholipid and 71.6 μM tissue factor) is used in a total volume of 100 μl.
(§4) Further studies were conducted using 3.2 μM phospholipid and 7.2 μM tissue factor in FVIII deficient or inhibited plasma, to characterise the effect on peak thrombin generation and thrombin peak time of various coagulation factor preparations. These studies provided a basis from which to compare the efficacy of the compounds in the assay. Briefly, rFVIII (Recombinate® FVIII from Baxter) was tested at 0, 5, 10, 20, 40 and 80 mU/ml in FVIII deficient plasma. FEIBA was tested at 0, 8, 16, 31, 63 and 125 mU/ml in FVIII inhibited plasma. FVIIa was tested at 0, 0.1, 0.4, 1.6, 6.3 and 25 nM in FVIII inhibited plasma. […] Peak thrombin increased and both the lag time and the thrombin peak time decrease.

[6] = tested on: Factor V deficient human plasma; assay: DDPTGA (reagent B) in FV depleted plasma; details: compounds at 50 μM and 80, 90 or 100 μM
Procedure: as §5, §6, §7, §8

FVIII inhibited plasma = assay: Defined Dual-Pathway Thrombin Generation Assay (DDPTGA, reagent C high), FVIII inhibited plasma; format: biochemical, human; details: for Peak IIa FEIBA EU / Peak IIa FVIIa EU / Peak Time FEIBA EU / Peak Time FVIIa EU: FVIII inhibited plasma
Excerpt: as §1, §2, §3, §4

[7] = tested on: Factor VIII deficient human plasma; assay: DDPTGA (reagent B) in FVIII depleted plasma; format: biochemical; details: compounds at 50 μM and 80, 90 or 100 μM; also: key: '+' means stimulates; '−' means does not stimulate
Excerpt: as §2

Plasma stability = details: human
Procedure: Half-life of compounds in human or mouse plasma, or percentage of compound remaining after an incubation in human or mouse plasma, is determined as follows. In the experimental procedure, test compound concentrations are 5 μM, prepared from test compound stock solutions of 10 mM in DMSO. Propantheline is used as a standard. […] All of the samples are incubated in a water bath at 37° C. […] After a chosen duration of incubation (generally at t=60 min) each sample is mixed with a further 500 μl acetonitrile. The samples are mixed on a vortex mixer for 30 s and placed on ice for 10 min and collected for centrifugation. Samples are centrifuged at 20 000 g for 10 min at 4° C. 500 μl supernatant is transferred into a new 1.5 ml Eppendorf tube and an equal volume of acetonitrile is added. The sample is mixed again for 30 s using a vortex mixer. After a second centrifugation step (20 000 g, 10 min, 4° C.) 250 μl of the supernatant is transferred into HPLC glass vials for HPLC-MS analysis. Conditions for performing HPLC are as follows: Injection-volume is set to 20 μl. Temperature is set to 25° C. A linear gradient from 95:5 to 5:95 water:acetonitrile both containing 0:05% trifluoroacetic acid (TFA) (v/v) is applied at a flow rate of 0.3 ml/min for 10 min. The PDA-detector is scanning from 210-400 nm.

physchem = details: pH 7.4
Procedure: Aqueous solubility is measured in PBS at pH 7.4 either in an assay provided by Cerep (France, Catalog ref. 900-11a) or according to the following protocol. The aim of this procedure is to determine the solubility of a drug candidate (analyte) in a buffer, by estimating the saturation concentration of the candidate in the buffer using HPLC. A known concentration of the candidate in an organic solvent is used as a standard. A stock solution of the test compound in DMSO must be prepared as the initial step. […] DMSO stock-solutions are diluted to a final concentration of 50 μM with DMSO (100% reference-solution) and buffer (test-solution) to provide a minimum volume of 500 μL of each. Both solutions are shaken at 25° C. at 950 rpm in an Eppendorf “thermomixer comfort” for at least 60 min. The suspension is centrifuged at 22 330 g for at least two min and 100 μL of the supernatant is transferred into polypropylene-inserts placed in glass vials and closed by snap-ring caps. Alternatively the solutions can be prepared in microtiter plates with half of the previously described starting solvent volume. For the determination of the solubility all samples are analyzed by HPLC in triplicate. Injection volume is at least 10 μL. The obtained data are analyzed by “Chemstation-software” (Agilent, Waldbronn, Germany). The peaks from the analyses of the organic solutions are integrated and the arithmetic mean is reported as “AUC 1” (reference area of known amount injected at the HPLC). […] The ratio of the mean “AUC 2” and “AUC 1” is calculated and thus the percentage of the dissolved amount of compound in buffer is obtained and solubility can be reported in μM.

FIX−/− mice = assay: Tail clip assay in FIX−/− mice (blood loss, survival); format: in vivo, mouse; details: for Survival (%) 2 hours / Survival (%) 4 hours / Survival (%) 24 hours / Survival (%) 48 hours: FIX−/− mice, tail clip

## Ac-WDLYFEIVW-ttds-E [Peptide A07]
[1]
  Stimulation of thrombin generation: +
[2]
  Stimulation of thrombin generation: +
[3]
  Stimulation of thrombin generation: +
[4]; peptide 6.25 μM
  Thrombin peak time given as FEIBA equivalent activity: 415 mU/ml
[4]; peptide 12.5 μM
  Thrombin peak time given as FEIBA equivalent activity: 585 mU/ml
[4]; peptide 25 μM
  Thrombin peak time given as FEIBA equivalent activity: 750 mU/ml
[4]; peptide 50 μM
  Thrombin peak time given as FEIBA equivalent activity: 965 mU/ml
[4]; peptide 100 μM
  Thrombin peak time given as FEIBA equivalent activity: 1129 mU/ml
[4]
  Activity in the Defined Intrinsic Thrombin Generation Assay: possess activity
[5]; compound 12.5 μM
  FEIBA EU (from clotting time): 268 mU/ml
[5]; compound 25 μM
  FEIBA EU (from clotting time): 246 mU/ml
[5]; compound 50 μM
  FEIBA EU (from clotting time): 199 mU/ml
[5]; summary
  Activity in the Defined Fibrin Deposition Assay: possess activity
FVIII deficient plasma; peptide 50 μM
  Peak IIa FVIII EU: BLS (BLS = below lowest standard.)
  Peak Time FVIII EU: BLS (BLS = below lowest standard.)
FVIII deficient plasma; peptide 100 μM
  Peak IIa FVIII EU: BLS (BLS = below lowest standard.)
  Peak Time FVIII EU: BLS (BLS = below lowest standard.)
[6]
  Stimulation of thrombin generation: −
FVIII inhibited plasma; peptide 50 μM
  Peak IIa FEIBA EU: BLS (BLS = below lowest standard.)
  Peak IIa FVIIa EU: BLS (BLS = below lowest standard.)
  Peak Time FEIBA EU: BLS (BLS = below lowest standard.)
  Peak Time FVIIa EU: BLS (BLS = below lowest standard.)
FVIII inhibited plasma; peptide 100 μM
  Peak IIa FEIBA EU: BLS (BLS = below lowest standard.)
  Peak IIa FVIIa EU: 0.1 nM
  Peak Time FEIBA EU: BLS (BLS = below lowest standard.)
  Peak Time FVIIa EU: BLS (BLS = below lowest standard.)
FVIII inhibited plasma; summary, FVIII inhibited or deficient plasma
  Activity in the Defined Dual-Pathway Thrombin Generation Assay: possess activity
[7]
  Stimulation of thrombin generation: +

## Ac-VWDLYFEIVW-NH2 [Peptide A19]
Plasma stability
  remaining at 0.5 h, 5 μM: 99%
[4]; peptide 6.25 μM
  Thrombin peak time given as FEIBA equivalent activity: 383 mU/ml
[4]; peptide 12.5 μM
  Thrombin peak time given as FEIBA equivalent activity: 495 mU/ml
[4]; peptide 25 μM
  Thrombin peak time given as FEIBA equivalent activity: 525 mU/ml
[4]; peptide 50 μM
  Thrombin peak time given as FEIBA equivalent activity: 663 mU/ml
[4]; peptide 100 μM
  Thrombin peak time given as FEIBA equivalent activity: 826 mU/ml
[4]
  Activity in the Defined Intrinsic Thrombin Generation Assay: possess activity
physchem
  solubility kinetic: 14 µM

## Immunine: purified plasma FIX preparation (Baxter AG. Austria)
FIX−/− mice; 50, 100 or 200 U/kg i.v.
  Blood loss over the 62 minutes after tail clip: dose-dependent reduction
FIX−/− mice; 50-200 U/kg
  Bleeding parameters and survival: dose dependently improves
FIX−/− mice; 50 U/kg i.v.
  Survival (%) 2 hours: 94%
  Survival (%) 4 hours: 69%
  Survival (%) 24 hours: 63%
  Survival (%) 48 hours: 63%
FIX−/− mice; 100 U/kg i.v.
  Survival (%) 2 hours: 100%
  Survival (%) 4 hours: 100%
  Survival (%) 24 hours: 94%
  Survival (%) 48 hours: 94%
FIX−/− mice; 200 U/kg i.v.
  Survival (%) 2 hours: 100%
  Survival (%) 4 hours: 100%
  Survival (%) 24 hours: 100%
  Survival (%) 48 hours: 100%

## CC[C@@H](C)[C@@H](NC(=O)[C@@H](CO)NC(C)=O)C(=O)N[C@H](CCSC)C(=O)N[C@H](Cc1ccccc1)C(=O)N[C@H](Cc1c[nH]c2ccccc12)C(=O)N[C@H](Cc1ccc(O)cc1)C(=O)N[C@H](CC(=O)O)C(=O)N[C@H](CCC(=O)O)C(=O)N[C@H](Cc1ccc(O)cc1)C(=O)N[C@H](CCC(=O)O)C(N)=O [Peptide B07, Ac-simfwydeye-NH2] (Ac-[dS][dI][dM][dF][dW][dY][dD][dE][dY][dE]-NH2)
Plasma stability
  remaining at 0.5 h, 5 μM: 89%
[4]
  Activity in the Defined Intrinsic Thrombin Generation Assay: possess activity
physchem
  solubility kinetic: 195 µM (≈ 278 µg/mL)

## CSCC[C@H]1NC(=O)[C@@H](Cc2ccc(O)cc2)NC(=O)[C@H](NC(=O)CCC(=O)NCCCOCCOCCOCCCNC(C)=O)CSSC[C@H](C(=O)N[C@H](Cc2ccc(O)cc2)C(=O)N[C@H](CCC(=O)O)C(N)=O)NC(=O)[C@@H](CC(=O)O)NC(=O)[C@@H](Cc2ccc(O)cc2)NC(=O)[C@@H](Cc2c[nH]c3ccccc23)NC(=O)[C@@H](Cc2ccccc2)NC1=O [Peptide B05, Ac-TTDS-(cymfwydc)-ye-NH2] ({X3-Suc}-[dC][dY][dM][dF][dW][dY][dD][dC][dY][dE]-NH2; disulfide 1-8)
Plasma stability
  remaining at 0.5 h, 5 μM: 112%
[4]; peptide 12.5 μM
  Thrombin peak time given as FEIBA equivalent activity: 126 mU/ml
[4]; peptide 25 μM
  Thrombin peak time given as FEIBA equivalent activity: 152 mU/ml
[4]; peptide 50 μM
  Thrombin peak time given as FEIBA equivalent activity: 270 mU/ml
[4]; peptide 100 μM
  Thrombin peak time given as FEIBA equivalent activity: 649 mU/ml
[4]; peptide 200 μM
  Thrombin peak time given as FEIBA equivalent activity: 1089 mU/ml
[4]
  Activity in the Defined Intrinsic Thrombin Generation Assay: possess activity
physchem
  solubility kinetic: 174 µM (≈ 307 µg/mL)
